Data on one compound can be found in US20250270507A1, “METHODS FOR PRODUCING CARTILAGE AND BONES” (Murdoch Children's Research Institute, priority 2021, published 2025).

The subject of assay [1] is MCRIi001-A-2 organoids. Briefly: Osteogenic differentiation conditions in a second iPSC line. Type of assay: cell-based, human. As to conditions: 10 nM T3 for 14 days before osteogenic culture; both osteogenic conditions. The method, then:
Hypertrophic chondrocytes can transdifferentiate into osteoblasts and osteocytes in vivo (Yang et al., 2014; Zhou et al., 2014). To recapitulate this later stage of endochondral bone formation in vitro, hypertrophic chondrocyte pellets in orbital culture were rinsed in PBS then cultured in DMEM, high glucose, GlutaMAX Supplement, pyruvate (ThermoFisher), 20% FBS (ThermoFisher), 10 mM β-glycerophosphate, 50 μg/ml ascorbic acid 2-phosphate, 50 μg/ml sodium ascorbate, 100 nM dexamethasone (osteogenic differentiation media) for up to three weeks. […] Media was replaced every 2-3 days.
Cultured and in vivo grafted pellet organoids were fixed overnight at 4° C. in Confix (Australian Biostain) neutral-buffered formalin, then […] washed in 70% ethanol, and paraffin-embedded. After fixing, some in vivo grafted pellets were washed in water for 10 minutes then decalcified in 14% EDTA, pH 7.4 at 4° C. for 5 days before embedding. Serial 5 μm sections cut from the pellet centers were mounted on Superfrost Plus slides (Menzel-Gläser) and heated at 55° C. overnight. Sections were treated with xylene to remove the paraffin wax and an ethanol series comprising 100%, 90%, 70%, 50% ethanol then water to rehydrate the sections. Sections were stained with toluidine blue to detect a cartilage proteoglycan matrix or safranin O/fast green for cartilage and bone following standard protocols. […]

The subject of assay [2] is iPSC-derived chondronoids (MCRIi019-A and MCRIi018-B). Briefly: Chondronoid maturation to hypertrophy with T3. It is filed as cell-based, human. The method, then:
Triiodothyronine (T3) is crucial for chondrocyte hypertrophy (Aghajanian et al., 2017) thus in some experiments differentiated chondrocytes were treated with 10 nM T3 (Sigma-Aldrich) for 10-21 days to induce chondrocyte hypertrophy. From day 20 (after 2 weeks of FGF2 treatment), differentiation/maturation continued in APEL2/5% PFHM (without FGF2) with medium replaced every 2-3 days. T3 was added when the pellets had consistent and even cartilage histology, which ranged between 4 and 6 weeks post-sclerotome chondrocyte differentiation. In some experiments, pellets were briefly treated with 0.25% trypsin/EDTA for 4 min at 37° C. with agitation to remove the small amount of non-cartilage tissue that occasionally remained on the surface of the chondrocyte pellets. These were allowed to recover in chondrocyte medium (APEL2/5% PFHM) for 1 week before analysis and/or T3 treatment and continued maturation.
Cultured and in vivo grafted pellet organoids were fixed overnight at 4° C. in Confix (Australian Biostain) neutral-buffered formalin, then […] washed in 70% ethanol, and paraffin-embedded. After fixing, some in vivo grafted pellets were washed in water for 10 minutes then decalcified in 14% EDTA, pH 7.4 at 4° C. for 5 days before embedding. Serial 5 μm sections cut from the pellet centers were mounted on Superfrost Plus slides (Menzel-Gläser) and heated at 55° C. overnight. Sections were treated with xylene to remove the paraffin wax and an ethanol series comprising 100%, 90%, 70%, 50% ethanol then water to rehydrate the sections. Sections were stained with toluidine blue to detect a cartilage proteoglycan matrix or safranin O/fast green for cartilage and bone following standard protocols. Osteogenic pellet sections were also stained with von Kossa to detect mineralization. Images were captured using a Leica DM 2000 LED microscope with Leica Application Suite (LAS) software version 4.9.0 or Zeiss Axio Imager Z2 with Zen 3.1 Blue Edition software.
Formalin fixed and paraffin-embedded sections were immunostained for collagen II (MAB8887; Sigma-Aldrich; 1:150 dilution), collagen I (LF68; Kerafast ENH018-FP; 1:100), collagen X (Cameron et al., 2015) (1:100), PRG4 (clone 9G3; Merck) (1:100) and Ku80 (Cell Signaling) (1:300). For collagen II staining, antigen retrieval used 2 mg/ml porcine pepsin (Sigma) freshly prepared in 1 M Tris/HCl, pH 2.0 for 30 minutes at 37° C., followed by digestion for 30 minutes at 37° C. with 0.2% hyaluronidase (Sigma-Aldrich) in PBS. Collagen X antigen retrieval involved heating to 60° C. in 10 mM Tris/1 mM EDTA/0.05% Tween-20, pH 9.0 (Tris/EDTA) for 30 min, cooling to room temperature for 30 minutes, followed by hyaluronidase digestion and collagen I and Ku80 staining followed antigen retrieval at 60° C. in Tris/EDTA as above. Sections to be stained with Ku80 were then permeabilized with 0.05% Triton X-100. Sections were blocked with 3% BSA in PBS for 1 hour at room temperature, then incubated with primary antibodies in 1% BSA in PBS for 16 hours at 4° C. Appropriate species specific Alexa Fluor 488 and 594 secondary antibodies (ThermoFisher) were diluted 1:200 in 1% BSA in PBS with 2.5 μg/ml DAPI, and sections incubated for 1 hour at room temperature. Slides were washed with PBS and coverslips mounted using Shandon Immumount (ThermoFisher). Images were captured as described above. For collagen X intracellular colocalization studies sections were treated with 0.2% hyaluronidase at 37° C. for 30 minutes then permeabilized with 0.05% Triton X-100. The collagen X antibody was used at 1:100, 58K (PA1-9000; ThermoFisher) at 1:50, GRP94 (PA5-18534; ThermoFisher) 1:200 and LAMP2 (ab25631; Abcam) 1:50. Images were captured on a Zeiss LSM900 Airyscan 2 confocal microscope with Zen 3.1 Blue Edition software. […]

Setting [3] is: T3 from day 48 to day 69, RNAseq.

For `N[C@@H](Cc1cc(I)c(Oc2ccc(O)c(I)c2)c(I)c1)C(=O)O` [T3, Triiodothyronine], the “von Kossa staining in organoids pre-treated v not pre-treated” value in assay [1] is “more extensive and more intense von Kossa staining”. In addition, in assay [2] (T3 from day 48 to day 69), the “spontaneous maturation to hypertrophic chondrocytes” value is given as “enhanced”. In assay [2] (setting [3]), the “expression of canonical cartilage genes (COL2A1, COL9A1, COL11A1, SOX9, SOX6, SOX5)” value is reported as “downregulated” and the “expression of late hypertrophic cartilage markers (VEGFA, DMP1, HIF1A, MMP13, ALPL)” value was “enhanced expression”. In addition, in assay [2] (compared with spontaneous hypertrophy), the “expression of ALPL, FOSL2, VEGFA, BMP7 and DMP1” value is on record as “only upregulated after stimulation”. For the same compound, in assay [2] (day 69), the “chondronoid appearance by histology and immunostaining” value was “appeared similar with and without T3”. In addition, in assay [2] (day 69+T3, core matrisome RNAseq), the “expression of sentinel cartilage genes (COL11A1, COL9A1, COL9A2, COL9A3, EPYC, MATN1, LUM, COMP, EDIL3)” value was “downregulated”.
